Source: patent publication US8022206B2 (OSI Pharmaceuticals, LLC, priority 2008, dated 2011)

Legend:
RON (human) = RON (human) (Homo sapiens, UniProt Q04912); test: RON (human) AlphaScreen kinase assay, Km of ATP; format: biochemical; details: AlphaScreen, Km of ATP; read-out: RON biochemical IC50
How it was run: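 Detection used PT66 AlphaScreen beads added in Tris pH 7.5/NaCl/EDTA/BSA buffer, read after 1 h incubation. Vehicle-only DMSO wells served as controls.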

MET (human) = MET (human) (Homo sapiens, UniProt P08581); test: MET (human) AlphaScreen kinase assay, Km of ATP; format: biochemical; details: AlphaScreen, Km of ATP; read-out: Met biochemical IC50
How it was run: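 Human MET at lot-optimised concentration in 50 mM Tris pH 7.4 buffer with 1 mM DTT, compound at 1% DMSO final; enzyme starts the reaction, 60 min at RT.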

Sequence of MET (human) (P08581 25-1390): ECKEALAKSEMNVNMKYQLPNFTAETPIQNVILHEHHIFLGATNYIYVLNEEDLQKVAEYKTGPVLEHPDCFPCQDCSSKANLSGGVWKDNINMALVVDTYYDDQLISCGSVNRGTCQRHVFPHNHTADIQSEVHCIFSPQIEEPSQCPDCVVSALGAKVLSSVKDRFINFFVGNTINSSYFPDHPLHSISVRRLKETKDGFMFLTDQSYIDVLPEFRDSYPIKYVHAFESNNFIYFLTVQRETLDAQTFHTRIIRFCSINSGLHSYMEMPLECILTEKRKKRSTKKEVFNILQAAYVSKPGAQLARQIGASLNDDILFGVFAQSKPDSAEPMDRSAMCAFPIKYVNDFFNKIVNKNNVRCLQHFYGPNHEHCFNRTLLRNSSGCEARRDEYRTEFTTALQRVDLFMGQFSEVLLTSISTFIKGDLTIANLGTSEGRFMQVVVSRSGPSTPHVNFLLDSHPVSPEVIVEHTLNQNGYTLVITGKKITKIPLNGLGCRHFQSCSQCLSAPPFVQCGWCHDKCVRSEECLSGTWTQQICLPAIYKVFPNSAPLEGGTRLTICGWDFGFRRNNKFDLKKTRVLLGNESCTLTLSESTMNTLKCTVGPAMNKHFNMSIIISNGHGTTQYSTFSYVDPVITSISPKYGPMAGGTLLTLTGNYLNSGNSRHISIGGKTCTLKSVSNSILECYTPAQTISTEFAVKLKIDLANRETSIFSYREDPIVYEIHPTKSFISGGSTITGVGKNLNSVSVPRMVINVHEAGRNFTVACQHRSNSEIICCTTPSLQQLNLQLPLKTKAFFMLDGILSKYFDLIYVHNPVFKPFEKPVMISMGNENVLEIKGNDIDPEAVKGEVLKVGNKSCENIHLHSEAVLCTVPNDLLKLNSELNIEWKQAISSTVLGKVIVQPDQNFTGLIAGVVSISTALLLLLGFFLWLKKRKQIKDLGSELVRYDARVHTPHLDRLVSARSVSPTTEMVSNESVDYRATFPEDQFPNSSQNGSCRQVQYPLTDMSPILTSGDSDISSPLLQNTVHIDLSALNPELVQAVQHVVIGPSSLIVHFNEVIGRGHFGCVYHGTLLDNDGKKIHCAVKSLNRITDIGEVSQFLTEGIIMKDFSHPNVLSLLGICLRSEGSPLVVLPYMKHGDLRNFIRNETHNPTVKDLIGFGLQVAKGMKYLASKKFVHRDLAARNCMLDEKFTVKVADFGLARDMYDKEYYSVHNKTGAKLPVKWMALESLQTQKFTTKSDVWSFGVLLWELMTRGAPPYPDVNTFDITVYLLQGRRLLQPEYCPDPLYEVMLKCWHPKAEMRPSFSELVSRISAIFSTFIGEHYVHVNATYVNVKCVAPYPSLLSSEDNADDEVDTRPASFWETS
Sequence of RON (human) (Q04912 25-1400): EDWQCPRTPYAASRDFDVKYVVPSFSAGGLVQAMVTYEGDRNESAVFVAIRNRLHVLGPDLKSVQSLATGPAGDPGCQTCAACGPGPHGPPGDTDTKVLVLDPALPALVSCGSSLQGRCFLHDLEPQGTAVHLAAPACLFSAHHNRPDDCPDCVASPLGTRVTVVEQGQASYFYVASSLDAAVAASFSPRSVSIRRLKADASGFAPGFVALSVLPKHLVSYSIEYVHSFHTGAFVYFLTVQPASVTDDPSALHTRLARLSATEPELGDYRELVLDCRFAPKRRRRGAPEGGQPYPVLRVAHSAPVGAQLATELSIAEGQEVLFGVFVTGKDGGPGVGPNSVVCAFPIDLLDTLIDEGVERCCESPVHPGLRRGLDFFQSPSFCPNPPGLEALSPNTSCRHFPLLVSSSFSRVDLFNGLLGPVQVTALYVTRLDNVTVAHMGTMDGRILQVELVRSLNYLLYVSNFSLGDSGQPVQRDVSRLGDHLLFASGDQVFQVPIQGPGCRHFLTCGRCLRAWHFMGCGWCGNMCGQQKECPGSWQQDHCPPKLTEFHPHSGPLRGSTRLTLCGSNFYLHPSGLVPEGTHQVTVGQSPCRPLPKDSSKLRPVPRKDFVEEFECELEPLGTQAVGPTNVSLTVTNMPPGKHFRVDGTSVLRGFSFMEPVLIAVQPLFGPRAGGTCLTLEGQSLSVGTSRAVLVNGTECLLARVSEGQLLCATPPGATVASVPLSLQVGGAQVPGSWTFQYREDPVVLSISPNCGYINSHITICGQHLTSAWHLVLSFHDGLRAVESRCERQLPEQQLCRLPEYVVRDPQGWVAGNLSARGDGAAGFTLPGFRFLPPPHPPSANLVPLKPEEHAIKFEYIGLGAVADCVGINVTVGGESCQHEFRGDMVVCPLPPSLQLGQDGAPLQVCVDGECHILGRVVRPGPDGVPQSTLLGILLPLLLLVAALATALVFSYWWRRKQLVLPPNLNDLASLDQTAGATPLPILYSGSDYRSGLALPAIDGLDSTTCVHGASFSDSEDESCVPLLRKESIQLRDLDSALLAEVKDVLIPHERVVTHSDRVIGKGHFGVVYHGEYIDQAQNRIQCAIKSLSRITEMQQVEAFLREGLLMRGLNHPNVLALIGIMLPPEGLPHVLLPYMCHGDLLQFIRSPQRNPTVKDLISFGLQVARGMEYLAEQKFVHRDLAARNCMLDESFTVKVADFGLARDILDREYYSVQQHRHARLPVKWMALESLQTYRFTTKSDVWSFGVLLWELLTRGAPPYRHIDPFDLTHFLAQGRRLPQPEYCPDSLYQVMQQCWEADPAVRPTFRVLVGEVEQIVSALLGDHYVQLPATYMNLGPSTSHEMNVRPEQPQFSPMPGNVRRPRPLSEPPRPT

Row | SMILES | IC50 (RON (human)) | IC50 (MET (human))
1 | COC(=O)c1ccc(C(C)Oc2c(N)ncc3c(-c4cnn(C5CCNCC5)c4)coc23)cc1 (stereo not shown) [Example 422, 4-{1-[6-Amino-3-(1-piperidin-4-yl-1H-pyrazol-4-yl)furo[3,2-c]pyridin-7-yloxy]ethyl}benzoic acid methyl ester] | 500 to 5000 nM | 500 to 5000 nM
2 | CC(Oc1c(N)ncc2c(-c3cnn(C4CCNCC4)c3)coc12)c1cccc(C(F)(F)F)c1 (stereo not shown) [Example 347, 3-(1-Piperidin-4-yl-1H-pyrazol-4-yl)-7-[1-(3-trifluoromethyl-phenyl)ethoxy]furo[3,2-c]pyridin-6-ylamine] | 500 to 5000 nM | < 500 nM
3 | Cn1cc(-c2ccc3nnc(COc4c(N)ncc5ccoc45)n3n2)cn1 [Example 472, 7-{[6-(1-methyl-1H-pyrazol-4-yl) [1,2,4]triazolo[4,3-b]pyridazin-3-yl]methoxy}furo[3,2-c]pyridin-6-amine] | 5000 to 20000 nM | 500 to 5000 nM
4 | C[C@@H](Oc1c(N)ncc2c(C3=CCN(CC(=O)N(C)C)CC3)coc12)c1c(Cl)ccc(F)c1Cl [Example 200, 2-(4-{6-Amino-7-[(R)-1-(2,6-dichloro-3-fluorophenyl)ethoxy]-furo[3,2-c]pyridin-3-yl}-3,6-dihydro-2H-pyridin-1-yl)-N,N-dimethylacetamide] | 500 to 5000 nM | < 500 nM
5 | C[C@@H](Oc1c(N)ncc2c(-c3cnn(C4CCNCC4)c3)coc12)c1ccccn1 [Example 399, 3-(1-Piperidin-4-yl-1H-pyrazol-4-yl)-7-((R)-1-pyridin-2-yl-ethoxy)furo[3,2-c]pyridin-6-ylamine] | 500 to 5000 nM | 500 to 5000 nM
6 | Nc1ncc2c(-c3cnn(C4CCNCC4)c3)coc2c1O[C@H]1CCC[C@H]1c1ccccc1 [Example 407] | 500 to 5000 nM | < 500 nM
7 | CCC(Oc1c(N)ncc2c(-c3cnn(C4CCNCC4)c3)coc12)c1c(Cl)cccc1Cl (stereo not shown) [Example 340, 7-[1-(2,6-Dichlorophenyl)propoxy]-3-(1-piperidin-4-yl-1H-pyrazol-4-yl)furo[3,2-c]pyridin-6-ylamine] | 500 to 5000 nM | < 500 nM
8 | Cn1c(Cc2ccccc2)ncc(-c2ccc(COc3c(N)ncc4c(Br)coc34)c(F)c2)c1=O [Example 466, 5-[4-(6-Amino-3-bromofuro[3,2-c]pyridin-7-yloxymethyl)-3-fluorophenyl]-2-benzyl-3-methyl-3H-pyrimidin-4-one] | 500 to 5000 nM | 500 to 5000 nM
9 | CC(Cc1ccc(Cl)cc1)Oc1c(N)ncc2c(-c3cnn(C4CCNCC4)c3)coc12 (stereo not shown) [Example 370, 7-[2-(4-Chlorophenyl)-1-methylethoxy]-3-(1-piperidin-4-yl-1H-pyrazol-4-yl)furo[3,2-c]pyridin-6-ylamine] | 500 to 5000 nM | < 500 nM
10 | COc1cc(OC)cc(-c2coc3c(O[C@H](C)c4c(Cl)ccc(F)c4Cl)c(N)ncc23)c1 [Example 81, 7-[(R)-1-(2,6-Dichloro-3-fluorophenyl)ethoxy]-3-(3,5-dimethoxyphenyl)furo[3,2-c]pyridin-6-ylamine] | 500 to 5000 nM | 500 to 5000 nM
11 | COCCNC(=O)c1coc2c(O[C@H](C)c3c(Cl)ccc(F)c3Cl)c(N)ncc12 [Example 192, 6-Amino-7-[(R)-1-(2,6-dichloro-3-fluorophenyl)ethoxy]furo[3,2-c]pyridine-3-carboxylic acid (3-methoxyethyl)amide] | 500 to 5000 nM | < 500 nM
12 | CC(Cc1ccccc1Br)Oc1c(N)ncc2c(-c3cnn(C4CCNCC4)c3)coc12 (stereo not shown) [Example 436, 7-[2-(2-Bromophenyl)-1-methylethoxy]-3-(1-piperidin-4-yl-1H-pyrazol-4-yl)furo[3,2-c]pyridin-6-ylamine] | < 500 nM | < 500 nM
13 | C[C@H](Oc1c(N)ncc2ccoc12)c1nnc2ccc(-c3cnn(C)c3)nn12 [Example 474, 7-{(1S)-1-[6-(1-methyl-1H-pyrazol-4-yl) [1,2,4]triazolo[4,3-b]pyridazin-3-yl]ethoxy}furo[3,2-c]pyridin-6-amine] | > 20000 nM | 500 to 5000 nM
14 | CNc1ncc2c(C3=CCN(C)CC3)coc2c1O[C@H](C)c1c(Cl)ccc(F)c1Cl [Example 36, [7-[(R)-1-(2,6-Dichloro-3-fluorophenyl)-ethoxy]-3-(1-methyl-1,2,3,6-tetrahydropyridin-4-yl)-furo[3,2-c]pyridin-6-yl]-methylamine] | < 500 nM | < 500 nM
15 | CNS(=O)(=O)c1cccc(-c2coc3c(O[C@H](C)c4c(Cl)ccc(F)c4Cl)c(N)ncc23)c1 [Example 83, 3-{6-Amino-7-[(R)-1-(2,6-dichloro-3-fluorophenyl)ethoxy]-furo[3,2-c]pyridin-3-yl}-N-methylbenzenesulfonamide] | 500 to 5000 nM | 500 to 5000 nM

Now from value to molecule:

Row | IC50 (RON (human)) | IC50 (MET (human)) | SMILES
16 | 500 to 5000 nM | 500 to 5000 nM | C[C@@H](Oc1c(N)ncc2c(C3=CCN(C(=O)N4CCN(CC(F)(F)F)CC4)CC3)coc12)c1c(Cl)ccc(F)c1Cl [Example 28, (4-{6-Amino-7-[(R)-1-(2,6-dichloro-3-fluorophenyl)-ethoxy]-furo[3,2-c]pyridin-3-yl}-3,6-dihydro-2H-pyridin-1-yl)-[4-(2,2,2-trifluoroethyl)-piperazin-1-yl]-methanone]
17 | < 500 nM | < 500 nM | C[C@@H](Oc1c(N)ncc2c(C3=CCN(C(=O)N4CCN(C(C)(C)C)CC4)CC3)coc12)c1c(Cl)ccc(F)c1Cl [Example 29, (4-{6-Amino-7-[(R)-1-(2,6-dichloro-3-fluorophenyl)-ethoxy]-furo[3,2-c]pyridin-3-yl}-3,6-dihydro-2H-pyridin-1-yl)-(4-tert-butylpiperazin-1-yl)-methanone]
18 | 500 to 5000 nM | 500 to 5000 nM | C[C@@H](Oc1c(N)ncc2c(-c3ccc(C(=O)O)cc3)coc12)c1c(Cl)ccc(F)c1Cl [Example 65, 4-{6-Amino-7-[(R)-1-(2,6-dichloro-3-fluorophenyl)ethoxy]-furo[3,2-c]pyridin-3-yl}benzoic Acid]
19 | 500 to 5000 nM | 500 to 5000 nM | C[C@@H](Oc1c(N)ncc2c(CO)coc12)c1c(Cl)ccc(F)c1Cl [Example 194, {6-Amino-7-[(R)-1-(2,6-dichloro-3-fluorophenyl)ethoxy]furo[3,2-c]pyridin-3-yl}-methanol]
20 | < 500 nM | < 500 nM | C[C@@H](Oc1c(N)ncc2c(-c3ccc(CN(C)C)s3)coc12)c1c(Cl)ccc(F)c1Cl [Example 214, 7-[(R)-1-(2,6-Dichloro-3-fluorophenyl)ethoxy]-3-(5-dimethyl-aminomethylthiophen-2-yl)-furo[3,2-c]pyridin-6-ylamine]
21 | 500 to 5000 nM | 500 to 5000 nM | C[C@@H]1CN(C(=O)c2ccc(-c3coc4c(O[C@H](C)c5c(Cl)ccc(F)c5Cl)c(N)ncc34)cc2)C[C@H](C)O1 [Example 297, (4-{6-Amino-7-[(R)-1-(2,6-dichloro-3-fluorophenyl)ethoxy]-furo[3,2-c]pyridin-3-yl}phenyl)-(2,6-cis-dimethylmorpholin-4-yl)methanone]
22 | < 500 nM | < 500 nM | C[C@@H](Oc1c(N)ncc2c(-c3cnn([C@H]4CCNC4)c3)coc12)c1c(Cl)ccc(F)c1Cl [Example 161, 7-[(1R)-1-(2,6-dichloro-3-fluorophenyl)ethoxy]-3-{1-[(3S)-pyrrolidin-3-yl]-1H-pyrazol-4-yl}furo[3,2-c]pyridin-6-amine]
23 | < 500 nM | < 500 nM | C[C@@H](Oc1c(N)ncc2c(-c3ccc(CN4CCC(O)CC4)s3)coc12)c1c(Cl)ccc(F)c1Cl [Example 216, 1-(5-{6-Amino-7-[(R)-1-(2,6-dichloro-3-fluorophenyl)ethoxy]-furo[3,2-c]pyridin-3-yl}-thiophen-2-ylmethyl)piperidin-4-ol]
24 | 5000 to 20000 nM | 5000 to 20000 nM | CC(C)NC(=O)c1csc(-c2coc3c(O[C@H](C)c4c(Cl)ccc(F)c4Cl)c(N)ncc23)c1 [Example 330, 5-{6-Amino-7-[(R)-1-(2,6-dichloro-3-fluorophenyl)ethoxy]furo[3,2-c]pyridin-3-yl}thiophene-3-carboxylic acid Isopropylamide]
25 | < 500 nM | < 500 nM | C[C@@H]1CN(C(=O)N2CC=C(c3coc4c(O[C@H](C)c5c(Cl)ccc(F)c5Cl)c(N)ncc34)CC2)C[C@H](C)N1C (relative stereo) [Example 221, (4-{6-Amino-7-[(R)-1-(2,6-dichloro-3-fluorophenyl)ethoxy]-furo[3,2-c]pyridin-3-yl}-3,6-dihydro-2H-pyridin-1-yl)-((3R*,5S*)-3,4,5-trimethylpiperazin-1-yl)-methanone]
26 | 5000 to 20000 nM | 500 to 5000 nM | C[C@@H](Oc1c(N)ncc2c(-c3cncc(C(=O)N4CCOCC4)c3)coc12)c1c(Cl)ccc(F)c1Cl [Example 282, (5-{6-Amino-7-[(R)-1-(2,6-dichloro-3-fluorophenyl)ethoxy]furo[3,2-c]pyridin-3-yl}pyridin-3-yl)morpholin-4-ylmethanone]
27 | < 500 nM | < 500 nM | C[C@@H](Oc1c(N)ncc2c(C3=CCN(C(=O)C4CCNCC4)CC3)coc12)c1c(Cl)ccc(F)c1Cl [Example 21, (4-{6-Amino-7-[(R)-1-(2,6-dichloro-3-fluorophenyl)-ethoxy]-furo[3,2-c]pyridin-3-yl}-3,6-dihydro-2H-pyridin-1-yl)-piperidin-4-ylmethanone]
28 | 500 to 5000 nM | 500 to 5000 nM | C[C@@H](Oc1c(N)ncc2c(-c3ccc(CO)s3)coc12)c1c(Cl)ccc(F)c1Cl [Example 212, (5-{6-Amino-7-[(R)-1-(2,6-dichloro-3-fluorophenyl)ethoxy]-furo[3,2-c]pyridin-3-yl}-thiophen-2-yl)methanol]
29 | 500 to 5000 nM | < 500 nM | C[C@@H](Oc1c(N)ncc2c(-c3cccc(CN)c3)coc12)c1c(Cl)ccc(F)c1Cl [Example 90, 3-(3-Aminomethylphenyl)-7-[(R)-1-(2,6-dichloro-3-fluorophenyl)-ethoxy]furo[3,2-c]pyridin-6-ylamine]
